In patent US7696194B2, “Visual function disorder improving agents” (Senju Pharmaceutical Co., Ltd., priority 2001, dated 2010):
Counter-ions that a name gives are not always drawn.

Legend:
optic nerve cell [1] = experiment: In vivo optic nerve cell regeneration after optic nerve cut and sciatic nerve autograft (Example 4); set-up: species or system SD rats; conditions: for regenerated optic nerve cell count relative to the control group: control = physiological saline; for regenerated optic nerve cell count relative to the normal group: 5 μL into the vitreous body, 6 weeks after grafting
Procedure: The optic nerve of SD rats weighing 220-280 g was cut under pentobarbital sodium (0.4 mg/kg, i.p.) anesthesia. Separately, the sciatic nerve of the optic nerve-severed rat was taken out in about 3-4 cm and autografted at an end of the optic nerve, which had been cut-earlier. The compound 2 dissolved to 120 μM was injected into the vitreous body by 5 μL immediately before cutting the optic nerve, and gelatin pieces (3 mm×3 mm; Spongel, Yamanouchi Pharm.) immersed in a 10 μM solution of compound 2 were embedded around the autograft (compound 2 treatment group—1). For compound 2 treatment group—2, the compound 2 dissolved to 1.2 mM was injected into the vitreous body by 5 μL and 100 μM of compound 2 was used around the graft. In the control group, physiological saline was used instead of compound 2. During the grafting, attention was paid to avoid damage to the ophthalmic artery, and after grafting, the retinal vascular network was confirmed with a funduscope before breeding under a temperature 23° C.±2, humidity-55±10% environment. The rats were allowed to have a free access to a feed and water. After 6 weeks from the grafting operation, the graft was transversely cut under pentobarbital sodium (0.4 mg/kg, i.p.) anesthesia, and 4-Di-10ASP [4-(4-didecylaminostyryl)-N-methyl-propidium iodide, Sigma, St. Louis, Mo.] crystal (ca. 2 mg) was embedded in the cut area of the graft, thereby to retrogradely label retinal ganglion cells. […]. The images of the retinal extension samples observed under a microscope were directly imported into computer images from the fluorescence microscope and the retrogradely labeled retinal ganglion cells were counted using an image analyzing soft (MacSCOP, MITANI CO.) (FIG. 4). The obtained number of the retrogradely labeled retinal ganglion cells was taken as indicating the regenerated optic nerve cells. Meanwhile, the optic nerve of the rat free of grafting was cut, 4-Di-10ASP crystal (ca. 2 mg) was embedded similarly, and the number of the labeled retinal ganglion cells of the retinal extension sample was taken as the number of optic nerve cells of the normal group.
The ratios (%) of the regenerated optic nerve cell counts of the control group, compound 2 treatment group—1 and compound 2 treatment group—2, relative to the optical nerve cell counts of the control, were calculated.

retinal ganglion cell [2] = experiment: In vitro extension of nerve axon of cultured retinal ganglion cells (Example 3); type: cell-based, Wistar rat
Procedure: Retinal ganglion cells were isolated from an eye ball of a Wistar rat and cultured in a 48 well plate coated with polylysine (50 μg/mL, Sigma) and merosin (2 μg/mL, GIBGO) at 37° C. under the environment of 5% CO2, 95% air. The number of cells was about 5000 cells/well. The culture solution was a culture solution (FCS-free culture solution) of Neurobasal Medium (GIBCO) supplemented with 50 ng/mL BDNF (human brain-derived neurotrophic factor, Sigma), 50 ng/mL CNTF (rat cilliary neurotrophic factor, Sigma), 5 μM forskolin (Sigma), 1 mM glutamine (Wako) and B27 Supplement (GIBCO; 1 mL/50 mL culture solution). After culture for 24 hrs in a culture solution of the aforementioned FCS-free culture solution supplemented with 10% FCS (FCS-supplemented culture solution containing Rho activator) and an FCS-free culture solution, the group cultured in the FCS-free culture solution was divided into 2 groups, and one of them was used as a compound 2 addition group with the addition of 10 μM of compound 2, and the other was used as a compound 2 non-addition group. After further culture for 24 hrs, the level of extension of nerve axon of a retinal ganglion cell was observed under an inverted light microscope. In addition, 1 μM lysophosphatidic acid (LPA), which is a Rho activator, was added to an FCS-free group and axon retraction due to Rho activation was also examined.

retinal ganglion cell [3] = experiment: In vitro axon length of cultured retinal ganglion cells, Calcein AM image analysis (Example 5); type: cell-based, Wistar rats; conditions: 10 μM final concentration, N=3; for proportion of long neurites cells (axon not less than 100 μm) relative to the whole cells: control group 7%; for proportion of middle neurites cells (axon 21 μm-99 μm) relative to the whole cells: control group 12%
Procedure: In the same manner as in Examples 1 and 3, retinal ganglion cells isolated from the eye ball of 6 to 8-day-old Wistar rats (male-female mixture, SLC) were cultured (cell count: ca. 2000 cells/well). The test compounds (compounds 3-5) were added to the culture solution to the final concentration of 10 μM and respectively used as compound 3 addition group, compound 4 addition group and compound 5 addition group. The control was a test compound non-addition group. The compound 3 (4-[2-(2,3,4,5,6-pentafluorophenyl)acryloyl]cinnamic acid) was synthesized according to the description of Example 8 of JP-A-2000-44513 and used. As compound 4 (ethacrynic acid), one made by Sigma was used and as compound 5 (fasudil hydrochloride), a commercially-available fasudil hydrochloride hydrate injection: “Eril® Injection 30 mg” (produced and sold by Asahi Kasei Corporation) was used.
Using LIVE/DEAD® Viability/Cytotoxicity Kit (L-3224)(Molecular probes) and utilizing the fluorescence characteristics of viable cells by Calcein AM, Calcein AM was uptaken into the retinal ganglion cells and the level of extension of nerve axon of a retinal ganglion cell was observed under a fluorescence microscope. The images of the retinal extension samples observed under a microscope were directly imported into computer images from the fluorescence microscope and the length of the nerve axon was measured using an image analyzing soft (MacSCOP, MITANI CO.). The cells having an axon of not less than 100 μm in length were taken as long neurites cells, the cells having an axon of 21 μm-99 μm were taken as middle neurites cells, and the cells having an axon of not more than 20 μm in length were taken as short neurites cells (no axonal extension). The proportion (%) of the long neurites cells and middle neurites cells relative to the whole cells was calculated for each.

retinal ganglion cell [4] = experiment: In vitro extension of nerve axon of cultured retinal ganglion cells (Example 1); type: cell-based, Wistar rat; conditions: then 10 μM compound added, further 24 hrs
Procedure: Retinal ganglion cells were isolated from an eye ball of a Wistar rat, and cultured in a 48 well plate coated with polylysin (50 μg/mL, Sigma) and merosin (2 μg/mL, GIBCO) at 37° C. under the environment of 5% CO2, 95% air. The number of the cells was about 5000 cells/well. The culture solutions were a culture solution (fetal calf serum-free culture solution) of Neurobasal Medium (GIBCO) supplemented with 50 ng/mL BDNF (human brain-derived neurotrophic factor, Sigma), 50 ng/mL CNTF (rat cilliary neurotrophic factor, Sigma), 5 μM forskolin (Sigma), 1 mM glutamine (Wako) and B27 Supplement (GIBCO; 1 mL/50 mL culture solution), and a culture solution (FCS supplemented culture solution) of the aforementioned fetal calf serum-free culture solution supplemented with 10% fetal calf serum (hereinafter to be also referred to as FCS). After culture for 24 hrs in each culture solution, the group cultured in the FCS supplemented culture solution was divided into 2 groups, and one of them was used as a compound 1 addition group with the addition of 10 μM of compound 1, and the other was used as a compound 1 non-addition group. Similarly, the group cultured in the FCS-free culture solution was divided into a compound 1 addition group and a compound 1 non-addition group. […]

optic nerve cell [5] = experiment: In vivo optic nerve cell regeneration after optic nerve cut and sciatic nerve autograft (Example 2); set-up: species or system SD rats; conditions: 120 μmol/L, 5 μL into the vitreous body plus gelatin pieces with 10 μmol/L around the autograft, 6 weeks after grafting
Procedure: The optic nerve of SD rats weighing 220-280 g was cut under pentobarbital sodium (0.4 mg/kg, i.p.) anesthesia. Separately, the sciatic nerve of the optic nerve-severed rat was taken out in about 3-4 cm and autografted at an end of the optic nerve, which had been cut earlier. The compound 1 dissolved to 120 μmol/L was injected into the vitreous body by 5 μL immediately before cutting the optic nerve, and gelatin pieces (3 mm×3 mm; Spongel, Yamanouchi Pharm.) immersed in a 10 μmol/L solution of compound 1 were embedded around the autograft (compound 1 treatment group). For the non-treatment group, physiological saline was used instead of compound 1 for both the injection into the vitreous body and preparation of the gelatin pieces. […] The images of the retinal extension samples observed under a microscope were directly imported into computer images from the fluorescence microscope and the retrogradedly labeled retinal ganglion cells were counted using an image analyzing soft (MacSCOP, MITANI CO.). […]
The ratios (%) of the regenerated cell counts of the non-treatment group and compound 1 treatment group, relative to the optic nerve cell counts of the control, were calculated.

## C[C@@H](N)c1ccc(C(=O)Nc2ccnc3[nH]ccc23)cc1.Cl [compound 2, (R)-(+)-N-(1H-pyrrolo[2,3-b]pyridin-4-yl)-4-(1-aminoethyl)benzamide monohydrochloride]
Optic nerve cell [1]; treatment group-1: 120 μM intravitreal, 10 μM around the autograft
  regenerated optic nerve cell count relative to the control group: about 2.3 times
Optic nerve cell [1]; treatment group-1: 120 μM, 10 μM gelatin pieces around the autograft
  regenerated optic nerve cell count relative to the normal group: about 16%
Optic nerve cell [1]; treatment group-2: 1.2 mM intravitreal, 100 μM around the graft
  regenerated optic nerve cell count relative to the control group: about 4 times
Optic nerve cell [1]; treatment group-2: 1.2 mM, 100 μM around the graft
  regenerated optic nerve cell count relative to the normal group: about 28%
Retinal ganglion cell [2]; FCS-free culture solution 24 hrs, then 10 μM compound added, further 24 hrs
  level of extension of nerve axon of a retinal ganglion cell: clearly showed an action of extending the nerve axon of the retinal ganglion cell

## C=C(C(=O)c1ccc(C=CC(=O)O)cc1)c1c(F)c(F)c(F)c(F)c1F [compound 3, 4-[2-(2,3,4,5,6-pentafluorophenyl)acryloyl]cinnamic acid]
Retinal ganglion cell [3]
  proportion of long neurites cells (axon not less than 100 μm) relative to the whole cells: 22%
  proportion of middle neurites cells (axon 21 μm-99 μm) relative to the whole cells: 23%

## C=C(CC)C(=O)c1ccc(OCC(=O)O)c(Cl)c1Cl [compound 4, ethacrynic acid]
Retinal ganglion cell [3]
  proportion of long neurites cells (axon not less than 100 μm) relative to the whole cells: 11%
  proportion of middle neurites cells (axon 21 μm-99 μm) relative to the whole cells: 45%

## O=S(=O)(c1cccc2cnccc12)N1CCCNCC1 [compound 5, fasudil hydrochloride]
Retinal ganglion cell [3]
  proportion of long neurites cells (axon not less than 100 μm) relative to the whole cells: 15%
  proportion of middle neurites cells (axon 21 μm-99 μm) relative to the whole cells: 53%

## C[C@@H](N)c1ccc(C(=O)Nc2ccnc3[nH]ccc23)cc1.C[C@@H](N)c1ccc(C(=O)Nc2ccnc3[nH]ccc23)cc1.Cl.Cl.Cl.Cl.O.O.O [compound 1, (R)-(+)-N-(1H-pyrrolo[2,3-b]pyridin-4-yl)-4-(1-aminoethyl)benzamide dihydrochloride 3/2 hydrate]
Retinal ganglion cell [4]; FCS-free culture solution 24 hrs
  level of extension of nerve axon of a retinal ganglion cell: the extension of nerve axon became remarkable
Retinal ganglion cell [4]; FCS-supplemented culture solution 24 hrs, versus non-addition group
  level of extension of nerve axon of a retinal ganglion cell: clearly showed a retinal ganglion cell nerve axon extending action
Optic nerve cell [5]
  regenerated optic nerve cell count relative to the non-treatment group: about 2.4 times
Optic nerve cell [5]; control = rat free of grafting
  regenerated optic nerve cell count relative to the control group: about 12%

## lysophosphatidic acid [LPA, reference compound]
Retinal ganglion cell [2]; FCS-free culture solution 44 hrs, then 1 μM LPA, further 4 hrs
  axon retraction due to Rho activation: axon retraction effect
